Measurements reported in patent US5849801A, “4-amino-5-oxy-2,6,6-trimethyl-2-cycloheptene compounds” (Tokyo Tanabe Company Limited, priority 1995, dated 1998).
Counter-ions that a name gives are not always drawn. Blank lines part the entries; values can stand above or below the molecule they belong to.

Key:
[1] = tested on: histamine-induced guinea pig bronchoconstriction; assay: Effect on histamine-induced guinea pig bronchoconstriction models; assay type: in vivo, male Hartley guinea pigs; conditions: inhalation for 30 seconds, hydrochloride, histamine 3 μg/kg i.v. after 2 minutes
Experimental: After urethane anesthetization of male Hartley guinea pigs (body weight: 350~450 g, 5 per group, Nihon Crea Co.), a small cannula was inserted into trachea. Next, gallamine triethiodide (1 mg/kg) was intravenously administered, and the tracheal cannula was connected to a constant volume respirator. The artificial respiration was conducted with an air volume per breath of 7~10 ml, a breath frequency of 60/min and a lung application pressure of 10 cm water. The volume of air overflowing from the legs on the cannula side was recorded on a polygraph (RM6100: product of Nihon Koden Co.) with a model 7020 bronchospasm transducer (product of Ugo Basile). Hydrochloride of the test compounds were dissolved in physiological saline, and inhalation was performed with reference to the method of Minami et al. […] The inhalation load apparatus was prepared by directly incorporating an ultrasonic nebulizer into an artificial respiration circuit (Omron ultrasonic aspirator NE-U11B, product of […] Electric Co.). The test compound (mg/0.5 ml) was administered by inhalation for 30 seconds, and after 2 minutes histamine (3 μg/kg) was intravenously administered and the air overflow volume was measured. The bronchoconstriction rate was calculated as a percentage with 100 being the height of contraction when the airway was completely constricted. The inhibition rate was calculated by dividing the contraction rate of the test compound group by the contraction rate of the control group.

[2] = tested on: blood pressure of anesthetized rats; assay: Effect on blood pressure of anesthetized rats; assay type: in vivo, Male SD rats; conditions: Rattus norvegicus, intravenous, diastolic, urethane anesthesia, read-out: Reduction of blood pressure (%)
Experimental: Male SD rats (body weight: 250~350 g, product of Nihon Crea Co.) were placed under urethane anesthesia and then a sphygmomanometric pressure transducer was inserted into the left cervical artery and recording was made on a polygraph (RM6100, product of Nihon Koden Co.) using a strain pressure […], product of Nihon Koden Co.). The test compounds were dissolved in physiological saline and administered intravenously. The change in blood pressure was indicated as the reduction rate from the initial value of diastolic blood pressure just prior to administration of the test compound.

[3] = tested on: platelet aggregation induced by arachidonic acid; assay: Inhibiting effect on platelet aggregation (in vitro), arachidonic acid as aggregating agent; assay type: cell-based, Japanese white male house rabbits; conditions: Oryctolagus cuniculus; arachidonic acid 68.6 μg/ml, 37° C., platelet suspension
Experimental: (§1) Platelet rich plasma was prepared from Japanese white male house rabbits (body weight: 2.5~3.0 kg) following the method of Suzuki et al. (Suzuki, K. et al., The Clinical Report, Vol. 21, No. 13, p. 5263, 1987). The resulting platelet rich plasma solution was appropriately diluted with a Tris-Tyrode buffer solution (pH 7.4) to prepare a 4×10^5 platelet/μl platelet suspension to be used for the test. The platelet aggregation was measured using a platelet aggregometer (NBS Hematoracer 601, product of Nikoh Bioscience Co.). Specifically, 250 μl of the platelet suspension, 5 μl of a 96 mM calcium chloride solution and 5 μl of the test compound solution dissolved in methanol were added to a cuvette, and after incubating for one minute at 37° C., 20 μl of an aggregating agent was added and the maximum degree of aggregation occurring was determined. The aggregating agents used were platelet activating factor (PAF) (2.5 ng/ml) and arachidonic acid (68.6 μg/ml). The 50% inhibition concentration (IC50) was calculated from the results of measurement with various concentrations of each test compound.

[4] = tested on: rat peripheral arterial occlusion models; assay: Effect on rat peripheral arterial occlusion models (5% lactic acid induced); assay type: in vivo, SD rats; conditions: i.v., lower leg lesions at 14 days
Experimental: Models were prepared following the method of Iwamoto et al. (Iwamoto, M. et al., Japanese Pharmacology & Therapeutics, Vol. 14, Suppl. 5, p. 41, 1986). Upon minimal dissection of the femoral regions of SD rats (6 per group) with a body weight of 250~350 g under Nembutal anesthesia, 0.1 ml of 5% lactic acid was administered intraarterially. The rats were raised for 14 days under normal conditions, and observed for lesions of the lower legs. The grading for the lesions was: "1" for nigrities only at the nail tips, "2" for nigrities up to the digits, "3" for necrosis of the digits, and "4" deciduation of the digits. Each of the digits of the lower legs on the side where lactic acid had been administered were graded, and the overall grade was determined as the index of lesions. The disorder inhibition rate was determined by dividing the index of lesions in the drug-administered group by the index of lesions of the control group. The drugs were dissolved in physiological saline or dimethylsulfoxide, and injected through the caudal vein 5 minutes prior to injection of the 5% lactic acid.

[5] = tested on: antigen-induced guinea pig bronchoconstriction; assay: Effect on antigen-induced guinea pig bronchoconstriction; assay type: in vivo, Male Hartley guinea pigs; conditions: inhaled one minute before i.v. DNP-bovine serum albumin; observed 15 minutes; passively sensitized
Experimental: Male Hartley guinea pigs (body weight: 300~450 g, Nihon Crea Co.) were intraperitonealy administered anti-DNP-Ascarls serum (1024-fold antibody titer) at 0.5 ml/kg. After 24 hours, under urethane anesthesia there were inserted a cannula into the trachea, a sphygmomanometric cannula into the left cervical artery and a drug injection cannula into the right jugular vein, and gallamine triethiodide (1.0 mg/0.5 ml/kg) was intravenously administered and connected to an artificial respirator (product of Ugo Basile). For the test, diphenhydramine (60 mg/ml/kg) was intraperitoneally administered, the compound of Example 16 was inhaled as the test compound after 14 minutes, and following intravenous administration of DNP-bovine serum albumin (1.0 mg protein/0.5 ml/kg) one minute after administration of the test compound, the degree of bronchoconstriction was observed over a period of 15 minutes. The bronchoconstriction rate was given as a percentage of the maximum air over flow volume obtained by clamping off the trachea. The test compounds were inhaled by nebulizing for 30 seconds with an ultrasonic nebulizer.

[6] = tested on: calcium contraction of the thoracic aorta; assay: Effect on calcium contraction (in vitro), thoracic aorta specimens; set-up: species or system Male SD rats; conditions: Rattus norvegicus; 1×10^-7 M in dimethylsulfoxide; 0.3 mM calcium chloride, 80 mM KCl buffer
Experimental: This was investigated according to the method of Ishibashi, et al. (Ishibashi, A. et al., Folia Pharmacologica Japonica, Vol. 82, p. 361, 1983). Male SD rats of body weight approximately 300 g were used to prepare thoracic aorta extract specimens, which were suspended and immobilized in a organ bath containing 10 ml of Krebs-Henseleit buffer solution at 37° C. through which a mixed gas of oxygen (95%) and carbon dioxide (5%) had been passed. After equilibrating the specimens, they were equilibrated in a buffer solution without calcium chloride and then in an isotonic calcium-free 80 mM potassium chloride buffer solution replaced with potassium ions, and a resting tension of 0.2 g was applied. Contraction was induced by addition of 0.3 mM calcium chloride. The test compounds were added 10 minutes prior to addition of the calcium solution. The percent inhibition of the test compounds were calculated using the first contraction as the control (100% contraction). The test compounds were used for the test as solutions in dimethylsulfoxide at a 1×10^-7 M concentration.

[7] = tested on: platelet aggregation induced by platelet activating factor (PAF); assay: Inhibiting effect on platelet aggregation (in vitro), platelet activating factor (PAF) as aggregating agent; assay type: cell-based, Japanese white male house rabbits; conditions: Oryctolagus cuniculus; PAF 2.5 ng/ml, 37° C., platelet suspension
Experimental: as §1

Structure (SMILES): CC1=CC(N2CCCC2)C(O)C(C)(C)CC1=O.Cl (stereo not drawn) [Example 15, 5-hydroxy-4-pyrrolidino-2,6,6-trimethyl-2-cyclohepten-1-one hydrochloride]
Brochoconstriction inhibition rate ([1]; 3.0 mg/0.5 ml): 73%
inhibition in vivo at 10 mg/kg [2]: 26%

IC50 [3]: 36 µM
Structure (SMILES): CC1=CC(N2CCC3(CC2)OCCO3)C(O)C(C)(C)CC1=O (stereo not drawn) [Example 26, 4-(1,4-dioxa-8-aza-spiro[5.4]decan-8-yl)-5-hydroxy-2,6,6-trimethyl-2-cyclohepten-1-one]
Brochoconstriction inhibition rate ([1]; 3.0 mg/0.5 ml): 53%

Structure (SMILES): CC1=CC(NC2CCCC2)C(O)C(C)(C)CC1=O (stereo not drawn) [Example 7, 4-cyclopentylamino-5-hydroxy-2,6,6-trimethyl-2-cyclohepten-1-one hydrochloride]
inhibition in vivo at 10 mg/kg [2]: 34%

IC50 [3]: 11 µM
Structure (SMILES): CC1=CC(N(C)Cc2ccccc2)C(O)C(C)(C)CC1=O (stereo not drawn) [Example 28, 5-hydroxy-4-(N-methylbenzylamino)-2,6,6-trimethyl-2-cyclohepten-1-one]

IC50 [3]: 100 µM
Structure (SMILES): CC1=CC(N2CCCCC2)C(O)C(C)(C)CC1=O (stereo not drawn) [Example 16, 5-hydroxy-4-piperidino-2,6,6-trinethyl-2-cyclohepten-1-one hydrochloride]
Inhibition rate ([4]; 3 mg/kg, solvent physiological saline (printed once, above)): 65%
Inhibition rate ([4]; 30 mg/kg, solvent physiological saline (printed once, above)): 78%
Brochoconstriction inhibition rate ([1]; 3.0 mg/0.5 ml): 32%
Brochoconstriction inhibition rate ([1]; 10.0 mg/0.5 ml): 46%
airway contraction / bronchoconstriction (FIG. 1) [5]: inhibited airway contract ion
inhibition in vivo at 1 mg/kg [2]: 6%
inhibition in vivo at 3 mg/kg [2]: 16%
inhibition in vivo at 10 mg/kg [2]: 40%
inhibition at 0.1 µM [6]: 24%

Structure (SMILES): CC1=CC(NC(C)(C)C)C(O)C(C)(C)CC1=O (stereo not drawn) [Example 12, 5-hydroxy-4-(tert-butylamino)-2,6,6-trimethyl-2-cyclohepten-1-one]
inhibition in vivo at 10 mg/kg [2]: 33%

Structure (SMILES): CC1=CC(NCCc2ccccc2)C(O)C(C)(C)CC1=O (stereo not drawn) [Example 2, 4-(2-phenylethylamino)-5-hydroxy-2,6,6-trimethyl-2-cyclohepten-1-one]
inhibition in vivo at 1 mg/kg [2]: 16%
inhibition in vivo at 3 mg/kg [2]: 31%

Structure (SMILES): CCN(CC)C1C=C(C)C(=O)CC(C)(C)C1O (stereo not drawn) [Example 13, 4-diethylamino-5-hydroxy-2,6,6-trimethyl-2-cyclohepten-1-one]
inhibition in vivo at 10 mg/kg [2]: 28%

Structure (SMILES): CC1=CC(N2CCCCCC2)C(O)C(C)(C)CC1=O (stereo not drawn) [Example 17, 4-hexamethyleneimino-5-hydroxy-2,6,6-trimethyl-2-cyclohepten-1-one]
inhibition in vivo at 10 mg/kg [2]: 42%

IC50 [3]: 100 µM
Structure (SMILES): CC1=CC(NCc2ccccc2)C(O)C(C)(C)CC1=O (stereo not drawn) [Example 1, 4-benzylamino-5-hydroxy-2,6,6-trimethyl-2-cyclohepten-1-one]
Inhibition rate ([4]; 5 mg/kg, in physiological saline): 42%
inhibition at 0.1 µM [6]: 48%

Structure (SMILES): CCCCNC1C=C(C)C(=O)CC(C)(C)C1O.Cl (stereo not drawn) [Example 9, 4-(1-butylamino)-5-hydroxy-2,6,6-trimethyl-2-cyclohepten-1-one hydrochloride]
Brochoconstriction inhibition rate ([1]; 1.0 mg/0.5 ml): 57%
inhibition in vivo at 1 mg/kg [2]: 14%
inhibition in vivo at 3 mg/kg [2]: 32%
inhibition in vivo at 10 mg/kg [2]: 51%

Structure (SMILES): CC1=CC(N2CCCCC2)C(O)C(C)(C)CC1=NO (stereo not drawn) [Example 30, 5-hydroxy-4-piperidino-2,6,6-trimethyl-2-cyclohepten-1-one oxime]
Brochoconstriction inhibition rate ([1]; 3.0 mg/0.5 ml): 42%

Structure (SMILES): COCCNC1C=C(C)C(=O)CC(C)(C)C1O (stereo not drawn) [Example 10, 5-hydroxy-4-(2-methoxyethylamino)-2,6,6-trimethyl-2-cyclohepten-1-one]
inhibition at 0.1 µM [6]: 32%

IC50 [7]: 98 µM
Structure (SMILES): CC1=CC(N2CCOCC2)C(O)C(C)(C)CC1=O (stereo not drawn) [Example 18, 5-hydroxy-4-morpholino-2,6,6-trimethyl-2-cyclohepten-1-one]
inhibition at 0.1 µM [6]: 39%

Structure (SMILES): CC1=CC(N2CCC(O)CC2)C(O)C(C)(C)CC1=O (stereo not drawn) [Example 23, 4-(4-hydroxypiperidino)-5-hydroxy-2,6,6-trimethyl-2-cyclohepten-1-one]
Brochoconstriction inhibition rate ([1]; 3.0 mg/0.5 ml): 23%

Structure (SMILES): CCOC(=O)c1ccc(CNC2C=C(C)C(=O)CC(C)(C)C2O)cc1 (stereo not drawn) [Example 4, 5-hydroxy-4-(4-ethoxycarbonylbenzylamino)-2,6,6-trimethyl-2-cyclohepten-1-one]
inhibition at 0.1 µM [6]: 33%

Structure (SMILES): CC1=CC(NC2CCCCC2)C(O)C(C)(C)CC1=O (stereo not drawn) [Example 8, 4-cyclohexylamino-5-hydroxy-2,6,6-trimethy-2-cyclohepten-1-one hydrochloride]
inhibition in vivo at 10 mg/kg [2]: 45%

Structure (SMILES): CC1=CC(N2CCCCC2)C(O)C(C)(C)CC1=O (single isomer, unassigned; (-)) [(-) Compound of Example 35, (-)-5-hydroxy-4-piperidino-2,6,6-trinethyl-2-cyclohepten-1-one]
Brochoconstriction inhibition rate ([1]; 10.0 mg/0.5 ml): 64%

Structure (SMILES): CC1=CC(Nc2ccccc2)C(O)C(C)(C)CC1=O (stereo not drawn) [Example 5, 5-hydroxy-4-phenylamino-2,6,6-trimethyl-2-cyclohepten-1-one]
Inhibition rate ([4]; 5 mg/kg, in DMSO): 35%

Structure (SMILES): CC1=CC(N2CCN(C)CC2)C(O)C(C)(C)CC1=O (stereo not drawn) [Example 22, 5-hydroxy-4-(4-methylpiperazino)-2,6,6-trimethyl-2-cyclohepten-1-one]
Brochoconstriction inhibition rate ([1]; 3.0 mg/0.5 ml): 17%
inhibition at 0.1 µM [6]: 48%
